Experimental data taken from article PMC8402619 (Viruses, 2021).

Legend:
[1] = Metabolism in human intestinal S9 fraction; format: in vitro ADME; conditions: [3H]islatravir 5 µM, M4 the only metabolite detected
MRP3 = molecular target: T1, MRP3 (Homo sapiens, UniProt O15438); experiment: Inhibition of ATP-dependent probe uptake in Sf9 membrane vesicles; format: in vitro ADME; conditions: MRP3-mediated ATP-dependent uptake of E217βG
T1 construct: purchased Thermo Fisher Scientific; host or cells: Sf9

HIV-1 = conditions: cited from earlier work
CYP3A4 [2] = experiment: CYP induction in cryopreserved human hepatocytes; format: in vitro ADME; conditions: for mRNA Mean Fold Change ± SD CYP3A4: 48 h, n = 3 donors, vs DMSO vehicle
BCRP = molecular target: T2, BCRP (Homo sapiens, UniProt Q9UNQ0); experiment: Inhibition of BCRP-mediated methotrexate uptake in Sf9 membrane vesicles; format: in vitro ADME; design: purchased Thermo Fisher Scientific; host or cells: Sf9
T2 sequence (Q9UNQ0 1-655): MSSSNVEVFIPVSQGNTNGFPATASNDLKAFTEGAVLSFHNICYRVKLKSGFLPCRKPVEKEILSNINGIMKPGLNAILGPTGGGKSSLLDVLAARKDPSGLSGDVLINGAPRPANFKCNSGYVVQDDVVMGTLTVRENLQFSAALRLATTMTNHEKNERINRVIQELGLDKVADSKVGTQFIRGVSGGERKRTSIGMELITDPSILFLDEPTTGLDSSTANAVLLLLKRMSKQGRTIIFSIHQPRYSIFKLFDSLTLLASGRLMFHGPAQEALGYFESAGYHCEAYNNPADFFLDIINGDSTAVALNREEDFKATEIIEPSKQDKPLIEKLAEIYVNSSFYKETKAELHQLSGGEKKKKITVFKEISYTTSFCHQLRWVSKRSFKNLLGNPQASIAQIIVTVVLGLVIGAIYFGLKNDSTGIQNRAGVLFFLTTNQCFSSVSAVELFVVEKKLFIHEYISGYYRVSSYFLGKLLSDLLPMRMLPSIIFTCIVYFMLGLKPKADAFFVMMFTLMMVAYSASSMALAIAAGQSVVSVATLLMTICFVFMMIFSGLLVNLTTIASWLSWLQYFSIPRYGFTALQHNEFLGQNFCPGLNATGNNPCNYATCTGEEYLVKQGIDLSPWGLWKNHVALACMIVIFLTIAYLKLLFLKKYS

CYP3A4 [3] = molecular target: CYP3A4 (Homo sapiens, UniProt P08684); experiment: Time-dependent CYP inhibition in pooled human liver microsomes; format: in vitro ADME
[4] = Plasma protein binding by equilibrium dialysis, rabbit plasma; format: in vitro ADME; conditions: pH 7.4
MRP4 = molecular target: T3, MRP4 (Homo sapiens, UniProt O15439); experiment: Inhibition of ATP-dependent probe uptake in Sf9 membrane vesicles; format: in vitro ADME; conditions: MRP4-mediated ATP-dependent uptake of folic acid
T3 construct: purchased Thermo Fisher Scientific; host or cells: Sf9

CYP2C19 [5] = molecular target: T4, CYP2C19 (Homo sapiens, UniProt P33261); experiment: Reversible CYP inhibition in pooled human liver microsomes; format: in vitro ADME
MRP2 = molecular target: T5, MRP2 (Homo sapiens, UniProt Q92887); experiment: Inhibition of ATP-dependent probe uptake in Sf9 membrane vesicles; format: in vitro ADME; conditions: MRP2-mediated ATP-dependent uptake of ethacrynic acid glutathione conjugate
T5 construct: purchased Thermo Fisher Scientific; host or cells: Sf9

CYP2D6 = CYP2D6 (Homo sapiens, UniProt P10635); experiment: Time-dependent CYP inhibition in pooled human liver microsomes; format: in vitro ADME
CYP2C19 [6] = molecular target: T4, CYP2C19; experiment: as above; format: in vitro ADME
MATE1 = molecular target: T6, MATE1 (Homo sapiens, UniProt Q96FL8); experiment: Islatravir uptake as substrate, CHO-K1 vs CHO-K1-MATE1 cells; format: in vitro ADME
T6 construct: expressed in transfected cells; host or cells: CHO-K1
T6 sequence (Q96FL8 1-570): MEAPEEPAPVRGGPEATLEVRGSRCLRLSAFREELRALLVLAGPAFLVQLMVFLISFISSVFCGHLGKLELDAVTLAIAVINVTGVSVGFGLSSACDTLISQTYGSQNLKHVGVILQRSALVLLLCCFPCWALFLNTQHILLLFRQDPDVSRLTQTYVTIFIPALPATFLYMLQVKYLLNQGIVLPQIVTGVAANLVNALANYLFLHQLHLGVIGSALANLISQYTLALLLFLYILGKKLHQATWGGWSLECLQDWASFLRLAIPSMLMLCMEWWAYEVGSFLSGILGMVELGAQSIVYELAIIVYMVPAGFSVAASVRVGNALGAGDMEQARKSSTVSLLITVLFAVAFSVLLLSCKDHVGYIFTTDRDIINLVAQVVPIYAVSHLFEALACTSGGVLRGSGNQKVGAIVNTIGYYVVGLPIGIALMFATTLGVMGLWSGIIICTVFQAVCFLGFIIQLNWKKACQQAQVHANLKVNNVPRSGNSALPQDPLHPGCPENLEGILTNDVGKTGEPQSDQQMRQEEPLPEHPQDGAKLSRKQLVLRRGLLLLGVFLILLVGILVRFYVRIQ

[7] = Plasma protein binding by equilibrium dialysis, rat plasma; format: in vitro ADME; conditions: pH 7.4
MATE2K = molecular target: T7, MATE2K (Homo sapiens, UniProt Q86VL8); experiment: Inhibition of transporter-mediated probe uptake in MDCKII-MATE2K cells; format: in vitro ADME
T7 construct: expressed in transfected cells; host or cells: MDCKII
T7 sequence (Q86VL8 1-566 isoform Q86VL8-3): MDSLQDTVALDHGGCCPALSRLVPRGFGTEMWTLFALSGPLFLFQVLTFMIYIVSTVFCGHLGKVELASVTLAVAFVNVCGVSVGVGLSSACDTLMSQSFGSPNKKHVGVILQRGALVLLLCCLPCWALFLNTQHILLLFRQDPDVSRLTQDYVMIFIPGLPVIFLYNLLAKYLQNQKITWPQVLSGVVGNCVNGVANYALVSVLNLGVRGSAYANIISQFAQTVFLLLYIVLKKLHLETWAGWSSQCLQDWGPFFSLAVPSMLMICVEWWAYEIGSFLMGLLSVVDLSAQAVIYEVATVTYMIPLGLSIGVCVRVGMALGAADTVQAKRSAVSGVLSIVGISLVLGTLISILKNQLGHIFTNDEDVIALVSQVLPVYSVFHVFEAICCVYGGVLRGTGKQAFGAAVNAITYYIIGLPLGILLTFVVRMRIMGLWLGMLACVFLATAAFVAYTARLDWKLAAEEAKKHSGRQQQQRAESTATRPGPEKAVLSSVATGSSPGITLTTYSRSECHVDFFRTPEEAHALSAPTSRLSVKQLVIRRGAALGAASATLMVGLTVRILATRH

CYP3A4 (Homo sapiens, UniProt P08684), sequence (P08684 whole entry): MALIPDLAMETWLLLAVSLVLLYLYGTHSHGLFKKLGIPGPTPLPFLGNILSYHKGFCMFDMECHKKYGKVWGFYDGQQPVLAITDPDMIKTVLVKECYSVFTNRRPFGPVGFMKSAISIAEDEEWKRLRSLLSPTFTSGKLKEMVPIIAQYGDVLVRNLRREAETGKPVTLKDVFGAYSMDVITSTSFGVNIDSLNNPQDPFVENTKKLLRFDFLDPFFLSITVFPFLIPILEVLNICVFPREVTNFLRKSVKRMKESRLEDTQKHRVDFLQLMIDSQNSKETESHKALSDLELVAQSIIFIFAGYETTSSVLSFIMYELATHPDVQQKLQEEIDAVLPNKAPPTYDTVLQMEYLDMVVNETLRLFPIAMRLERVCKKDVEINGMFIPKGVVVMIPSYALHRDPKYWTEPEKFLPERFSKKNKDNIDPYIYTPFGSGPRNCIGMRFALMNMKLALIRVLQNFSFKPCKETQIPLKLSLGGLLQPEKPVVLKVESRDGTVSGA
CYP2D6, sequence (P10635 whole entry): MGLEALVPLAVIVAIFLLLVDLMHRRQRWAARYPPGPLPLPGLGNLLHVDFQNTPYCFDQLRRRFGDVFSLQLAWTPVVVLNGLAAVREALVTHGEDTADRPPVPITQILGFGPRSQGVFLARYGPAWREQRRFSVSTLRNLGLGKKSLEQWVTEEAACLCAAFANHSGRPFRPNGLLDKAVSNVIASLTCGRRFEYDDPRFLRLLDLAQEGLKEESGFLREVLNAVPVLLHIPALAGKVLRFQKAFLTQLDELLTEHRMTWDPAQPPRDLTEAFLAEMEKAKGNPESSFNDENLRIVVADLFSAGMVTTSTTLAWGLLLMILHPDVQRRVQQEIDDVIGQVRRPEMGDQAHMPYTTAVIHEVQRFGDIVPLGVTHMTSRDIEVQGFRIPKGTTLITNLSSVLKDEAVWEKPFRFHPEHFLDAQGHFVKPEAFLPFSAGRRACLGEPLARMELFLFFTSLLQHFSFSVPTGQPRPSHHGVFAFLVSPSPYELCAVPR
T4 sequence (P33261 whole entry): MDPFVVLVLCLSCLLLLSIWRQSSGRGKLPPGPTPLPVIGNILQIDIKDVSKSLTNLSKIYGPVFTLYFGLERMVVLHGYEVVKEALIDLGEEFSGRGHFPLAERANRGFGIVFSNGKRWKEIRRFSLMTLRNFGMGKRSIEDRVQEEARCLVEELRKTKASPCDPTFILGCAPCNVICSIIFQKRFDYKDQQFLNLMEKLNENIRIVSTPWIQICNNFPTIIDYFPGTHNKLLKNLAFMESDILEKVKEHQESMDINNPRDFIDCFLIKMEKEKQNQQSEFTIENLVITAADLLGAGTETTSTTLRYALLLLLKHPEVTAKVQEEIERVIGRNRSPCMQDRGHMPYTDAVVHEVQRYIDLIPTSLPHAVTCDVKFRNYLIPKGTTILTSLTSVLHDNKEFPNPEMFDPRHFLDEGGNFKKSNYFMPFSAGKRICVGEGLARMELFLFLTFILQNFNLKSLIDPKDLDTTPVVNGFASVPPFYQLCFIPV
T1 sequence (O15438 whole entry): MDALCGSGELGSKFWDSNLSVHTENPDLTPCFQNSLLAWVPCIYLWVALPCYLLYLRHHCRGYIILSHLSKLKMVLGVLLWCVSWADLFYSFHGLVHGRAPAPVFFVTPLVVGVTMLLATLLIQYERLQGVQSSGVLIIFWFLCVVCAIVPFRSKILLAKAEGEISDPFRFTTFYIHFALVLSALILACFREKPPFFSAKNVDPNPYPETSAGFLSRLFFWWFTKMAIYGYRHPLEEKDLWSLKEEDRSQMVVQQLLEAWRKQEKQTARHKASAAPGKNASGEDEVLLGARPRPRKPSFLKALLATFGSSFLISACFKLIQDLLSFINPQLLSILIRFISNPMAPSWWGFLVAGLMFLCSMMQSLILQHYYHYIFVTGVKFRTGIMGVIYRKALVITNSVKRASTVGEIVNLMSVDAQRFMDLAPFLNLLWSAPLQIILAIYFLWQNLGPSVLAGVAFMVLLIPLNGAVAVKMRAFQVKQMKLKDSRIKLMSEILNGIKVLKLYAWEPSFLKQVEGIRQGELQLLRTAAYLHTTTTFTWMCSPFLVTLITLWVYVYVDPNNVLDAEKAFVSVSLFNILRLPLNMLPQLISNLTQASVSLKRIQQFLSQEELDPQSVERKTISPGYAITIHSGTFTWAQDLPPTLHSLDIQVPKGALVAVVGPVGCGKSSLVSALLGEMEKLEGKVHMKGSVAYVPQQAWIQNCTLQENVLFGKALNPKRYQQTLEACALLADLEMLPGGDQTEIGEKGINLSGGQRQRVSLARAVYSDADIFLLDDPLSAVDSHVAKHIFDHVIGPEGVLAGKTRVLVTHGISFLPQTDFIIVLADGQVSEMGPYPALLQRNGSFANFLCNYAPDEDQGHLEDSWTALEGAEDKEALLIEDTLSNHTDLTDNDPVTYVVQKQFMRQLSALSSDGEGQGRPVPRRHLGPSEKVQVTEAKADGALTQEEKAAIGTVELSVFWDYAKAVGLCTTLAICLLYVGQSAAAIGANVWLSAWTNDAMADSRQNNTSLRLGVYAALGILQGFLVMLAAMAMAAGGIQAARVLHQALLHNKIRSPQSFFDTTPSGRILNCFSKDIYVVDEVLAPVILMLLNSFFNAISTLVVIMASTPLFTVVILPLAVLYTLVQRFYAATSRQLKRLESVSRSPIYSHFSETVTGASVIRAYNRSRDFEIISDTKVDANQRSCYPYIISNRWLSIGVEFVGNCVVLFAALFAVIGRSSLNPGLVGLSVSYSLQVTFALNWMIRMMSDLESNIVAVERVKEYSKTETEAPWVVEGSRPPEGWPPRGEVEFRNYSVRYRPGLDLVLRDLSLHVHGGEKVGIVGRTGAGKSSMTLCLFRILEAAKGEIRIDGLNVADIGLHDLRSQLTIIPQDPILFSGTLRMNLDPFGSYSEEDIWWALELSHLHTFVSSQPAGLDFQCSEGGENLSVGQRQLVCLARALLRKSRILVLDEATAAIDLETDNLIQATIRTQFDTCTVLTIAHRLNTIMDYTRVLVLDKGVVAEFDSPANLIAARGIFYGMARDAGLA
T3 sequence (O15439 whole entry): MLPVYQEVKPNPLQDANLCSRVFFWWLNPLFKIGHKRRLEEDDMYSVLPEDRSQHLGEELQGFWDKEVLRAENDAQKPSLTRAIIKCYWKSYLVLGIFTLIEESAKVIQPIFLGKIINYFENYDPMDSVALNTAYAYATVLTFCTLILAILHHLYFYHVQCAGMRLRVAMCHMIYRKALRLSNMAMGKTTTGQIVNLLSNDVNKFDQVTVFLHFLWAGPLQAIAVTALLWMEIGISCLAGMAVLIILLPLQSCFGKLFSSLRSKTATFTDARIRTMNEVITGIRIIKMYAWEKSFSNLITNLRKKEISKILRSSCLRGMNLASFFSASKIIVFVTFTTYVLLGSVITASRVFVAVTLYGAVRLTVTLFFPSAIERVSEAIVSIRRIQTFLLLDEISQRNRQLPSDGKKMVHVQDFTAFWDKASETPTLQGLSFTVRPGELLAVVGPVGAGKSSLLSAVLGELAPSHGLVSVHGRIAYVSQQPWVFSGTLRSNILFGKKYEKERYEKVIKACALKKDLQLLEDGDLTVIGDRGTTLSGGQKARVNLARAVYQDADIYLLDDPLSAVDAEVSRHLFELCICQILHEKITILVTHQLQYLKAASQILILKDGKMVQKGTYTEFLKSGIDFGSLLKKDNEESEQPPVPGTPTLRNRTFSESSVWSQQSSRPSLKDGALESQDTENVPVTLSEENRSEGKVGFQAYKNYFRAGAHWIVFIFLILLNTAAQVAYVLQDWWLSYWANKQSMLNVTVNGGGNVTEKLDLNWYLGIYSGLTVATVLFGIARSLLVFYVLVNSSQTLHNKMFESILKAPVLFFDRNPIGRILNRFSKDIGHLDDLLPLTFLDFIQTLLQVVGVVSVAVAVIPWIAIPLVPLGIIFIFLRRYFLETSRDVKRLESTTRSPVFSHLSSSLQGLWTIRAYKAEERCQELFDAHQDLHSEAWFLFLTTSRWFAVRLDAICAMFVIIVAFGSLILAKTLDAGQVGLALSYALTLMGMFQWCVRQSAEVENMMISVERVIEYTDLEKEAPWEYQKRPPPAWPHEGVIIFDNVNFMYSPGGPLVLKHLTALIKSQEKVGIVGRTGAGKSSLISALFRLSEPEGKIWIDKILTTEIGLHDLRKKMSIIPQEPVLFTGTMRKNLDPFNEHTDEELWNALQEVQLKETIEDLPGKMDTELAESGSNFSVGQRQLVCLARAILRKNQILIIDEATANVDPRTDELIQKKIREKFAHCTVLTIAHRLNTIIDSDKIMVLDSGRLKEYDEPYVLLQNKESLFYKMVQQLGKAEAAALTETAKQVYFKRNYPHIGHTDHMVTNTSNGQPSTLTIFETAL

## C#C[C@]1(CO)O[C@@H](n2cnc3c(N)nc(F)nc32)C[C@@H]1O [Islatravir, 4′-Ethynyl-2-fluoro-2′-deoxyadenosine]
[1]
  turnover: low turnover
MRP3
  IC50: > 100 µM
HIV-1; participants with and without HIV across a range of doses
  tolerability: generally well tolerated
HIV-1; single administration at a dose as low as 0.5 mg
  duration of viral load reduction maintained: 7 days
HIV-1; treatment-naïve PLWH, oral doses between 0.5 and 30 mg
  duration of viral load suppression: at least 7 days
CYP3A4 [2]; 0.1 µM
  mRNA Mean Fold Change ± SD CYP3A4: 0.6 ± 0.2
CYP3A4 [2]; 0.5 µM
  mRNA Mean Fold Change ± SD CYP3A4: 0.6 ± 0.2
CYP3A4 [2]; 1 µM
  mRNA Mean Fold Change ± SD CYP3A4: 0.6 ± 0.2
CYP3A4 [2]; 5 µM
  mRNA Mean Fold Change ± SD CYP3A4: 0.5 ± 0.1
CYP3A4 [2]; 10 µM
  mRNA Mean Fold Change ± SD CYP3A4: 0.6 ± 0.1
CYP3A4 [2]; 20 µM
  mRNA Mean Fold Change ± SD CYP3A4: 0.1 ± 0.1
CYP3A4 [2]; CYP3A4, each tested concentration 0.1-20 µM
  mRNA response relative to positive control: less than 20%
CYP3A4 [2]; CYP3A4 testosterone 6β-hydroxylation, all islatravir concentrations
  enzyme activity, fold of solvent control: ≤ 1.1 fold
BCRP; BCRP inhibition, FDA, EMA, PMDA guidance
  DDI Potential: Low risk
BCRP; BCRP-mediated methotrexate uptake, read-out: Islatravir IC50
  IC50: > 100 µM
BCRP; BCRP, 60 mg, Cmax 1.01 µM, fu,p 0.96
  Maximum Unbound Plasma Concentration (Imax,u) to IC50 Ratio: <0.010 µM
BCRP; BCRP, Igut = 60 mg/250 mL = 818 µM
  Intestinal Concentration (Igut) to IC50 Ratio: <8.2 µM
BCRP; human, BCRP-containing Sf9 membrane vesicles, probe [3H]methotrexate, 100 µM islatravir, membrane vesicle assay
  inhibition at 5 min, 100 µM: 35%
CYP3A4 [3]; CYP3A4, pre-incubation of 10 and 50 µM for up to 30 min
  time-dependent inhibition: no time-dependent inhibition
CYP3A4 [3]; CYP3A4 time dependent inhibition
  DDI Potential: Low risk ^h
CYP3A4 [3]; time dependent, CYP3A4, read-out: Islatravir IC50
  IC50: > 50 µM
[4]
  fraction unbound at 24 h, 0.1 µM: > 0.84
MRP4
  IC50: > 100 µM
CYP2C19 [5]; CYP2C19 reversible inhibition, FDA, EMA, PMDA guidance
  DDI Potential: Low risk
CYP2C19 [5]; CYP2C19 reversible, 60 mg, Cmax 1.01 µM, fu,p 0.96, Ki,u = IC50/2
  Maximum Unbound Plasma Concentration (Imax,u) to Ki,u Ratio: <0.019 µM
CYP2C19 [5]; reversible, CYP2C19 S-mephenytoin 4′-hydroxylation, read-out: Islatravir IC50
  IC50: > 100 µM
MRP2
  IC50: > 100 µM
CYP2D6; CYP2D6, pre-incubation of 10 and 50 µM for up to 30 min
  time-dependent inhibition: no time-dependent inhibition
CYP2D6; CYP2D6 time dependent inhibition
  DDI Potential: Low risk ^h
CYP2D6; time dependent, CYP2D6, read-out: Islatravir IC50
  IC50: > 50 µM
CYP2C19 [6]; CYP2C19, pre-incubation of 10 and 50 µM for up to 30 min
  time-dependent inhibition: no time-dependent inhibition
CYP2C19 [6]; CYP2C19 time dependent inhibition
  DDI Potential: Low risk ^h
CYP2C19 [6]; time dependent, CYP2C19, read-out: Islatravir IC50
  IC50: > 50 µM
MATE1; CHO-K1-MATE1, 2 µM [14C]islatravir, 20 min, mean ± SD, n = 3
  Islatravir Uptake Transporter-Expressing Cells: 2.94 ± 0.20 pmole/10^6 Cells
MATE1; MATE1, uptake into transporter-expressing cells to control cells, 20 min
  Fold-Difference: 1.01
MATE1; MATE1 row, CHO-K1 control cells, 2 µM [14C]islatravir, 20 min, mean ± SD, n = 3
  Islatravir Uptake Control Cells: 2.90 ± 0.27 pmole/10^6 Cells
MATE1; MATE1 substrate assessment
  Conclusions: Non-substrate
[7]
  fraction unbound at 24 h, 0.1 µM: > 0.84
MATE2K; MATE2K inhibition, FDA, EMA, PMDA guidance
  DDI Potential: Low risk
MATE2K; MATE2K, metformin uptake, read-out: Islatravir IC50
  IC50: > 75 µM
MATE2K; MATE2K, 60 mg, Cmax 1.01 µM, fu,p 0.96
  Maximum Unbound Plasma Concentration (Imax,u) to IC50 Ratio: <0.013 µM
